From patent US7588931B2, “High arachidonic acid producing strains of Yarrowia lipolytica” (E. I. du Pont de Nemours and Company, priority 2004, dated 2009)
“Also recorded” adds a separate entry of the source.

Assays:
Type in all cases: cell-based, Yarrowia lipolytica
[1] = system: β-glucuronidase (GUS) reporter; assay: Comparative analysis of promoters by histochemical analysis of GUS expression
Experimental: Comparative studies investigating the promoter activities of the TEF, GPD, GPDIN, GPM, GPAT, FBA, FBAIN and YAT1 promoters were performed, by synthesizing constructs comprising each promoter and the E. coli gene encoding β-glucuronidase (GUS) as a reporter gene (Jefferson, R. A. Nature. 14(342):837-838 (1989)). Then, GUS activity was measured by histochemical and fluorometric assays (Jefferson, R. A. Plant Mol. Biol. Reporter 5:387-405 (1987)) and/or by using Real Time PCR for mRNA quantitation.
Yarrowia lipolytica ATCC #76982 strains containing plasmids pY5-30, pYZGDG, pYZGMG, pDMW212 and pDMW214 were grown from single colonies in 3 mL MM at 30° C. to an OD600˜1.0. Then, 100 μl of cells were collected by centrifugation, resuspended in 100 μl of histochemical staining buffer, and incubated at 30° C. Staining buffer was prepared by dissolving 5 mg of 5-bromo-4-chloro-3-indolyl glucuronide (X-Gluc) in 50 μl dimethyl formamide, followed by the addition of 5 mL 50 mM NaPO4, pH 7.0.
In a separate experiment, Y. lipolytica Y2034 strains containing plasmids pY5-30, pYGPAT-GUS, pYAT-GUS and pDMW214 were grown from single colonies in 5 mL SD media at 30° C. for 24 hrs to an OD600˜8.0. Then, 1 mL of cells were collected by centrifugation. The remaining cultures were centrifuged and washed 2× with HGM, resuspended in 5 mL each of HGM and allowed to grow at 30° C. further. […]

[2] = system: β-glucuronidase (GUS) reporter; assay: Relative promoter activity rank from comparative GUS reporter studies (histochemical, fluorometric and/or Real Time PCR); details: relative to other promoters
Experimental: The activity of GPM is about the same as TEF, while the activity of GPD, FBA, FBAIN, FBAINm, GPDIN, GPAT, YAT1 and EXP1 are all greater than TEF (activity is quantified in a relative manner in the column titled “Activity Rank”, wherein a ‘1’ corresponds to the promoter with lowest activity, while a ‘7’ corresponds to the promoter with highest activity). […] GUS activity in each expressed construct was measured by histochemical and/or fluorometric assays (Jefferson, R. A. Plant Mol. Biol. Reporter 5:387-405 (1987)) and/or by use of Real Time PCR.

[3] = system: β-glucuronidase (GUS) reporter; assay: Comparative analysis of promoters by fluorometric assay of GUS expression
Experimental: GUS activity was also assayed by fluorometric determination of the production of 4-methylumbelliferone (4-MU) from the corresponding substrate β-glucuronide (Jefferson, R. A. Plant Mol. Biol. Reporter 5:387-405 (1987)).
Yarrowia lipolytica ATCC #76982 strains containing plasmids pY5-30, PYZGDG, PYZGMG, pDMW212 and pDMW214 were grown from single colonies in 3 mL MM (as described above) at 30° C. to an OD600˜1.0. Then, the 3 mL cultures were each added to a 500 mL flask containing 50 mL MM and grown in a shaking incubator at 30° C. for about 24 hrs. The cells were collected by centrifugation, resuspended in Promega Cell Lysis Buffer and lysed using the BIO 101 Biopulverizer system (Vista, Calif.). After centrifugation, the supernatants were removed and kept on ice.
Similarly, Y. lipolytica strain Y2034 containing plasmids pY5-30, pYAT-GUS, pYGPAT-GUS and pDMW214 constructs, respectively, were grown from single colonies in 10 mL SD medium at 30° C. for 48 hrs to an OD600˜5.0. Two mL of each culture was collected for GUS activity assays, as described below, while 5 mL of each culture was switched into HGM.
Specifically, cells from the 5 mL aliquot were collected by centrifugation, washed once with 5 mL of HGM and resuspended in HGM. The cultures in HGM were then grown in a shaking incubator at 30° C. for 24 hrs. Two mL of each HGM culture were collected for the GUS activity assay, while the remaining culture was allowed to grow for an additional 96 hrs before collecting an additional 2 mL of each culture for the assay.
Each 2 mL culture sample in SD medium was resuspended in 1 mL of 0.5× cell culture lysis reagent (Promega). Resuspended cells were mixed with 0.6 mL of glass beads (0.5 mm diameter) in a 2.0 mL screw cap tube with a rubber O-ring. The cells were then homogenized in a Biospec mini beadbeater (Bartlesville, Okla.) at the highest setting for 90 sec. The homogenization mixtures were centrifuged for 2 min at 14,000 rpm in an Eppendof centrifuge to remove cell debris and beads. The supernatant was used for GUS assay and protein determination.
For each fluorometric assay, 100 μl of extract was added to […] of GUS assay buffer (2 mM 4-methylumbelliferyl-β-D-glucuronide (“MUG”) in extraction buffer) or 200 μl of extract was added to 800 μl of GUS assay buffer. The mixtures were placed at 37° C. Aliquots of 100 μl were taken at 0, 30 and 60 min time points and added to 900 μl of stop buffer (1 M Na2CO3). Each time point was read using a CytoFluor Series 4000 Fluorescence Multi-Well Plate Reader (PerSeptive Biosystems, Framingham, Mass.) set to an excitation wavelength of 360 nm and an emission wavelength of 455 nm. Total protein concentration of each sample was determined using 10 μl of extract and 200 μl of BioRad Bradford reagent or 20 μl of extract and 980 μl of BioRad Bradford reagent (Bradford, M. M. Anal. Biochem. 72:248-254 (1976)). GUS activity was expressed as nmoles of 4-MU per minute per mg of protein.

[4] = system: wild type Y. lipolytica strains ATCC #20362 and ATCC #90812; assay: Sulfonylurea sensitivity screening of wild type strains; details: wild type strains ATCC #20362 and ATCC #90812
Description: When the amino acid sequences of wild type AHAS Y. lipolytica (GenBank Accession No. XP—501277) and S. cerevisiae (GenBank Accession No. P07342) enzymes were aligned, the Trp amino acid residue at position 586 of the S. cerevisiae enzyme was equivalent to the Trp residue at position 497 of the Y. lipolytica enzyme. It was therefore hypothesized that W497L mutation in the Y. lipolytica enzyme would likely confer sulfonylurea herbicide resistance, if the wild type cells were themselves sensitive to sulfonylurea. Using methodology well known to those of skill in the art, it was determined that sulfonylurea (chlorimuron ethyl) at a concentration of 100 μg/mL in minimal medium was sufficient to inhibit growth of wild type Y. lipolytica strains ATCC #20362 and ATCC #90812.

Row | Molecule | promoter activity by histochemical staining ([1]; strain Y2034, 24 hr in SD medium, FIG. 5C) | promoter activity by histochemical staining ([1]; strain Y2034, grown in HGM for 24 hrs) | Activity “Rank” [2] | promoter activity relative to activity in SD medium ([3]; after 120 hrs in HGM) [×] | GUS activity ([3]; strain Y2034, 24 hr, HGM) | GUS activity ([3]; strain Y2034, 48 hr, SD) | GUS activity ([3]; strain Y2034, 120 hr HGM) | increase of promoter activity ([3]; switched from SD medium into HGM and grown for 24 hrs) [fold] | concentration in minimal medium sufficient to inhibit growth [4] [µg/mL]
1 | YAT1: Y. lipolytica ammonium transporter promoter, SEQ ID NO:165 | active; also recorded: stronger than the TEF promoter but significantly weaker than the FBAIN promoter and GPAT promoter | stronger than the GPAT promoter and comparable with the FBAIN promoter | 6 | 25 | 19.154 nmoles of 4-MU per minute per mg of protein | 0.536 nmoles of 4-MU per minute per mg of protein | 13.400 nmoles of 4-MU per minute per mg of protein | ~37 | 
2 | CCOC(=O)c1ccccc1S(=O)(=O)NC(=O)Nc1nc(Cl)cc(OC)n1 [chlorimuron ethyl] |  |  |  |  |  |  |  |  | 100
